Series [1] relates to L. donovani LV82 promastigotes. As to the kind of experiment: Luciferase-expressing promastigote assay, strain LV82. In kind it is cell-based, Leishmania donovani. Particulars: for Promast: Amast Ratio: LV82; for IC50: Leishmania donovani, 72 h, LV82, 3 days, 25 °C. As to the method: The anti-leishmanial activity of APC against L. donovani luciferase-expressing promastigotes was determined by adding of the appropriate 100 µL parasite line (10^6 cells/mL) to the wells of a 96-well plate and adding 100 µL medium alone (controls) or 100 µL of APC compound (0.01 µg/mL–6.25 µg/mL, n = 3/treatment). The plate was incubated for 72 h at 25 °C. In combination assays, the additional compound/compounds, at a final concentration of 0.195 or 0.39 µg/mL, was added to the initial APC being tested.
(§1) Luciferin solution (1 µg/mL in 20 µL medium without FCS) was added to the appropriate wells of the 96-well plate at the end of the experiment and the amount of light emitted/well was measured using a luminometer (Biotek Synergy HT, relative light units) using a wavelength/bandwidth of 440/40 nm, or IVIS® imaging (Spectrum Living Image system®, total flux, photons/sec).
(§2) The effect of drug treatment on parasite survival was determined by calculating the mean suppression in the light emitted from the drug-treated experimental sample compared to the mean control value and used to calculate the IC50 using Grafit® software (version 5.0, Erithacus Software, East Grinstead, West Sussex, UK). The effect of drug alone on the viability of uninfected macrophages was determined using the same experimental protocol above, but cell viability was determined using an alamar blue colorimetric assay. At the end of the incubation period, cells’ 10 µL resazurin solution (0.02% w/v) was added to control and drug treated cells and the absorbance of samples was read at 575 and 595 nm. The effect of drug treatment on cell survival, which correlates with the magnitude of dye reduction, was expressed as percentage viability (or alamar blue reduction) and determined using the formula provided in the manufacturer’s protocol % alamar blue reduction=(εoxλ)(Aλ1)−(εoxλ1)(Aλ2)/(εredλ1)(A^′λ2)−(εredλ2)(A^′λ1)x100

Series [2] deals with L. donovani LV82 intracellular amastigotes. As to the kind of experiment: Intracellular amastigote assay in bone-marrow-derived macrophages, strain LV82. In kind it is cell-based, Leishmania donovani. Particulars: for Selectivity Index (SI50): macrophage CC50 / LV82 intracellular amastigote IC50. As to the method:
In the macrophage studies, the method described in previous studies was used as follows. […] It is possible that intracellular macrophage parasites could have been at different developmental stages at 24 h post-infection. […] Therefore, we assumed that the effect of compounds on the amastigote stage rather than the promastigotes stage was determined in in vitro macrophage studies.
The plate was incubated for a further 24 h, the medium removed, and each well washed with PBS to eliminate non-internalized parasites, which were monitored microscopically. […] Wells with macrophage and with no drug or promastigotes added were used in control experiments.
as §1
as §2, with “At the end of the incubation period, cells’ 10 µL resazurin solution (0.02% w/v) was added to control and drug treated cells and the absorbance of samples was read at 575 and 595 nm.” left out

Series [3] in a line: Cytotoxicity against uninfected macrophages (alamar blue). Particulars: BALB/c, mouse, read-out: Macrophage mean IC50 (CC50) (converted). In kind it is cell-based, BALB/c mice. As to the method: as §2
(§3) In the formula, ελ1 and ελ2 are constants representing the molar extinction coefficient of alamar blue at 575 and 595 nm, respectively, in the oxidized (εox) and reduced (εred) forms. Aλ1, Aλ2 and A’λ1, A’λ2 represent absorbance of test and negative control wells at 575 and 595 nm, respectively. The values of % alamar blue reduction (or % viability) were corrected for background values of negative controls containing medium without cells. Percent viability values were used to calculate the IC50 using Grafit® software (version 5.0).
(In general: Resazurin is reduced to fluorescent resorufin, in cell work by metabolically active cells.)

Series [4] has as its system bone-marrow-derived macrophages from BALB/c mice. The series is described as above. In kind it is cell-based. The settings on record: 3 days. How it is done: as §2, §3
The subject of the next series is visceral leishmaniasis. The settings on record: VL, 12 months post-treatment; cited from earlier work.
Setting [5] is: Leishmania donovani, Macrophage, in Mus musculus, 72 h, LV82, intracellular in BALB/c macrophages, 3 days, 37 °C.
Where [6] appears, read: uninfected bone-marrow-derived macrophages.
The mark [7] stands for this setting: LV82, intracellular in BALB/c macrophages, 3 days, 37 °C.

Values joined by “and” are separate entries in the source; they are usually repeats but may differ in a detail not shown here. Equal values may be shown once. Read-outs that look alike come from different tables or passages of the source.

What is called IC50 is the concentration that gives 50% inhibition. As for `CCCCCCCCCCCC[N+](C)(C)CCCCCCCCCCCC` [DAB, didodecyldimethyl ammonium bromide], the “Promast: Amast Ratio” value in series [1] is given as 0.79. For the same compound, the IC50 was 0.04 µg/mL and 91 nM in series [1]; 0.06 µg/mL and 119 nM in series [2] (setting [5]). The “Selectivity Index (SI50)” value in series [2] is on record as 1503.45. For the same compound, the IC50 at 3 days in series [3] is 82.8 µg/mL and 179 µM.
Consider `CC(C)CCC(CCC(C)C)OP(=O)([O-])OCC[N+](C)(C)C` [APC11PC, 2,8-Dimethyl-5-Nonylphosphocholine], for which, in series [1], the “Promast: Amast Ratio” value is reported as above 33.60; the IC50 is > 6.25 µg/mL and > 18.6 µM. In series [2] (setting [5]), the IC50 was 0.19 µg/mL and 550 nM. Besides, the “Selectivity Index (SI50)” value in series [2] worked out at 335.56. Further, in series [3] (setting [6]), the IC50 at 3 days is 61.9 µg/mL and 185 µM.
As for `CCCCCCCCCCCCOP(=O)(O)O` [PO, mono –n-dodecyl phosphate], in series [1], the “Promast: Amast Ratio” value was above 3.12; the IC50 is > 6.25 µg/mL and > 25.1 µM. For the same compound, the “activity against L. donovani compared to controls” value in series [1] (LV82 promastigotes and amastigotes) was “inactive”. In addition, the IC50 in series [2] (setting [5]) is > 2 µg/mL and > 8.02 µM. Besides, the “Selectivity Index (SI50)” value in series [2] is listed as above 50.00. Besides, in series [3] (setting [6]), the IC50 at 3 days is 100 µg/mL and 401 µM.
Regarding `C=CCCCCCCCCCOP(=O)([O-])OCC[N+](C)(C)C` [APC11UPC, 10-Undecylenyl-1-phosphocholine], in series [1], the “Promast: Amast Ratio” value was determined as 135.34. The half-maximal inhibitory concentration (IC50) in series [1] was 1.8 µg/mL and 5.37 µM; in series [2] (setting [5]) it was 0.01 µg/mL and 40 nM. Further, the “Selectivity Index (SI50)” value in series [2] was 4025.00. The IC50 at 3 days in series [3] (setting [6]) was 54 µg/mL and 161 µM.
As for dodecylamine [DA], the “Promast: Amast Ratio” value in series [1] turned out to be 0.18. Besides, the “Amastigote mean IC50” value in series [2] (setting [7]) was determined as 0.47 ± 0.00 µg/mL. The IC50 in series [2] (setting [7]) was 2540 nM; in series [4] (read-out: Macrophage mean IC50 (CC50) (converted)), 203 µM. The “Selectivity Index (SI50)” value in series [2] was found to be 79.88. Further, in series [4], the “Macrophage mean IC50 (CC50)” value turned out to be 37.60 ± 0.01 µg/mL.
As to `C[C@@H]1[C@H](O)[C@@H](C)/C=C/C=C/C=C/C=C/C=C/C=C/C=C/[C@H](O[C@@H]2O[C@H](C)[C@@H](O)[C@H](N)[C@@H]2O)C[C@@H]2O[C@](O)(C[C@@H](O)C[C@@H](O)[C@H](O)CC[C@@H](O)C[C@@H](O)CC(=O)O[C@H]1C)C[C@H](O)[C@H]2C(=O)O` [AMB, amphotericin B], in the series with visceral leishmaniasis, the cure rate was 93.7%.
Regarding `CCCCCCCCCCCCOP(=O)([O-])OCCCCCC[N+](C)(C)C` [APC12P6C], in series [1], the “Promast: Amast Ratio” value is listed as 33.33; the IC50 was 33.5 µg/mL and 82.2 µM. Further, the IC50 in series [2] (setting [5]) is 1.01 µg/mL and 2.47 µM. Besides, the “Selectivity Index (SI50)” value in series [2] is recorded as 14.01. Besides, the IC50 at 3 days in series [3] (setting [6]) was 14.1 µg/mL and 34.6 µM.

These data come from PMC7463460, “Structure and Antiparasitic Activity Relationship of Alkylphosphocholine Analogues against Leishmania donovani” (Microorganisms, 2020).
